Test results as given in patent publication US9029327B2, “Vaccine” (Affiris AG, priority 2009, dated 2015).
No end group written: not given here.

How the values were obtained:
Ang II peptide = experiment: peptide based ELISA of sera from vaccinated mice: binding capacity/titers against the Ang II peptide; format: in vivo; conditions: BALB/c mice, peptide-KLH, Alum; for reactivity/titer of induced sera against Ang II: ELISA titer ODmax/2, compared with sera evoked by Ang II peptide (set as 100%)
Procedure: (§1) In each Figure, on the X-axis sera derived from animals immunized with indicated peptides are listed. On the Y-axis relative titers of induced sera are shown. Titers derived from Ang II treated animals were set as 100%. Titers were calculated as the sera dilution giving half-maximal binding (i.e. ODmax/2). White bars indicate titers against the peptides that were used for vaccination while black bars represent titers against the Ang II peptide.
Therefore, in a first set of experiments each position in the Ang II sequence was systematically replaced by amino acids having similar or different features (see Table 1 for position 2). Subsequently all these peptides were chemically linked via an additional N-terminal cysteine to the protein carrier keyhole limpet haemocyanin (KLH) and administrated to mice (BALB/c) together with Alum as adjuvant. Sera from vaccinated mice were used to analyze the immunogenicity of indicated peptides. For this purpose a peptide based ELISA assay was used to define sera titers against the injected peptide (i.e. Ang II peptide variants, VARIOTOPEs) as well as to define the binding capacity of the obtained sera against the Ang II peptide.
as §1, with “the Figures (FIGS. 1 to 8 for position 1 to position 8) the results derived from these experiments are shown. On” for “each Figure, on”
(§2) All peptides listed in Table 2 were again chemically linked via the N-terminus to KLH adsorbed to Alum and injected s.c. into experimental animals (BALB/c mice). Sera were analyzed by ELISA and antibody responses induced by the peptide variants were compared to that one induced by the original peptide.

[1] = system: injected peptide (Ang II peptide variants, VARIOTOPEs); experiment: peptide based ELISA of sera from vaccinated mice: titers against the injected peptide; format: in vivo; conditions: BALB/c mice, peptide linked via N-terminal cysteine to KLH, Alum; ELISA titer ODmax/2, compared with Ang II treated animals (set as 100%)
Procedure: as §1
Therefore, in a first set of experiments each position in the Ang II sequence was systematically replaced by amino acids having similar or different features (see Table 1 for position 2). Subsequently all these peptides were chemically linked via an additional N-terminal cysteine to the protein carrier keyhole limpet haemocyanin (KLH) and administrated to mice (BALB/c) together with Alum as adjuvant. […]
In the Figures (FIGS. 1 to 8 for position 1 to position 8) the results derived from these experiments are shown. […] Titers were calculated as the sera dilution giving half-maximal binding (i.e. ODmax/2). […]
as §2

[2] = % of the activity of Ang II; cited from earlier work

## C-DAVYIAPF (CDAVYIAPF; also: C-terminal modification)
Ang II peptide
  reactivity/titer of induced sera against Ang II: diminished reactivity

## C-DAVYIAAA (CDAVYIAAA; also: C-terminal modification)
Ang II peptide
  reactivity/titer of induced sera against Ang II: diminished reactivity

## C-DRVYIHAA (CDRVYIHAA; also: C-terminal modification)
Ang II peptide
  reactivity/titer of induced sera against Ang II: diminished reactivity

## peptide variant with G on position 1: Ang II peptide CDRVYIHPF with G on position 1, KLH-linked; compare GRVYIHPF (SEQ ID NO:6)
[1]
  sera titer against the injected peptide: almost twice as high
Ang II peptide; versus sera of Ang II treated animals
  increase of reactivity against Ang II: ~50%

## C-DRVYAAPF (CDRVYAAPF; also: C-terminal modification)
Ang II peptide
  reactivity/titer of induced sera against Ang II: diminished reactivity

## Ang IV
[2]
  activity relative to Ang II: approximately 40%

## C-DAVYIAAF (CDAVYIAAF; also: C-terminal modification)
[1]
  sera titer against the injected peptide: lower compared to the titers induced by the other antigens
Ang II peptide
  reactivity/titer of induced sera against Ang II: diminished reactivity

## C-DRAAAHAF (CDRAAAHAF; also: C-terminal modification)
Ang II peptide
  reactivity/titer of induced sera against Ang II: diminished reactivity
